Experimental data: US20220332699A1 (SAGE THERAPEUTICS, INC., priority 2019, published 2022)

Assays:
CYP46A1 = CYP46A1 (Homo sapiens, UniProt Q9Y6A2); assay: CYP46A1 Enzyme Assay 2 (testosterone substrate, HPLC-MS); format: biochemical; conditions: read-out: IC50 (CYP46A1 inhibitory activity)
Procedure, shortened: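 CYP46A1 (5 μM final) with testosterone ([…] final) preincubated with compound 30 min at 37° C, reaction started with NADPH-generating system and run 15 min at 37° C. Quenched in methanol containing diclofenac internal standard; product read by HPLC-MS.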

[1] = Compound stability in cryopreserved human hepatocytes; format: in vitro ADME; conditions: pooled cryopreserved human hepatocytes, read-out: Human Hep Clint
Protocol: Pooled cryopreserved human hepatocytes from 10 donors were obtained from BioreclamationIVT (Cat No. X008001, Lot MMN). Test compounds (20 μL of 1 mM stock solution in DMSO) and control compounds 7-ethoxycoumarin and 7-hydroxycoumarin (20 μL of 3 mM stock solutions in DMSO) were diluted with 380 μL of 45% MeOH/H2O to obtain 50 μM solutions of test compound and 150 μM solutions of control compounds. Then 50 μL of these respective solutions were mixed with 450 μL of pre-warmed Williams' Medium E to obtain 5 μM test compound and 15 μM control compound solutions; and in duplicate 10 μL of these solutions were added to appropriate wells in a 96-well plate corresponding to incubation times T0, T15, T30, T60 and T90 and kept at 37° C. Cryopreserved human hepatocytes were thawed, isolated and suspended in Williams' Medium E, then diluted with pre-warmed William' Medium E to a concentration of 0.625×10^6 cells/mL. The reaction was started by aliquoting 40 μL of the hepatocytes into the 96-well plates containing 10 μL of the test and control compounds and incubated at 37° C. with 5% CO2. Stop solution (acetonitrile containing 200 ng/mL tolbutamide and labetalol as internal standards) was added at the requisite time (15, 30, 60, or 90 minutes). Hepatocytes were not added to the T0 samples, which were rather directly treated with stop solution. Medium control (MC) sample plates (T0-MC and T90-MC) were incubated in identical fashion as for the test samples, but without addition of hepatocytes and stop solution was added at the requisite times. The plates were vortexed immediately after addition of stop solution and placed on a plate shaker at 500 rpm for 10 min, then centrifuged at 3220×g for 20 min. The supernatants were transferred to 96-deep-well plates, sealed and stored at 4° C. until LC-MS-MS analysis. The concentration of compound remaining was determined by LC-MS-MS and plotted versus time. […]
Cutoff values determined by the hepatocyte stability assay are in Table 2 below: […]

P-gp (MDR1) = assay: Compound permeability and efflux across a MDCK-MDR1 cellular membrane; format: in vitro ADME, canine; conditions: dog, pH 7.4, MDCK-MDR1 cell monolayer; for Papp A→B at 2.5 h, 2 µM: A to B; for efflux ratio at 2.5 h, 2 μM: read-out: MDCK Effux Ratio (B:A/A:B)
Protocol: MDR1-MDCKII cells (obtained from Piet Borst at the Netherlands Cancer Institute) were seeded onto […] (PET) in 96-well BD insert systems at 2.5×10^5 cells/mL and grown for 4-7 days until confluent cell monolayer formation.
Transport buffer for test compound was HBSS with 10 mM Hepes (pH 7.4±0.05) with or without 1% BSA and with or without GF120918. Transport buffer for reference compound was HBSS with 10 mM Hepes (pH 7.4±0.05) with or without GF120918. Test and reference compounds (digoxin, nadolol and metoprolol) were diluted with transport buffer from stock solution to a concentration of 2 μM (DMSO<1%) and applied to the apical or basolateral side of the cell monolayer. Permeation of the test compounds from A to B direction or B to A direction was determined in triplicate with and without P-gp inhibitor (GF120918, 10 μM). Digoxin was tested at 10 μM in the presence or absence of 10 μM GF120918 bi-directionally as well, while nadolol and metoprolol were tested at 2 μM in the absence of GF120918 in A to B direction in duplicate. The plate was incubated for 2.5 h in a CO2 incubator at 37±1° C., with 5% CO2 at saturated humidity without shaking. Test and reference compounds were quantified by LC/MS/MS analysis based on the peak area ratio of analyte/IS.
Six wells per 96-well plate were selected for the lucifer yellow rejection assay to determine the cell monolayer integrity. Thus, 75 μL of 100 μM lucifer yellow in transport buffer and 250 μL transport buffer were added to apical and basolateral chambers, respectively. The plate was incubated for 150 min at 37° C. with 5% CO2 and 95% relative humidity without shaking. After 150 minutes incubation, 20 μL of lucifer yellow samples were taken from the apical sides, followed by the addition of 60 μL of Transport Buffer, and then 80 μL of lucifer yellow samples were taken from the basolateral sides. The relative fluorescence unit (RFU) of lucifer yellow was measured at 425/528 nm (excitation/emission) with a Envision plate reader.
The apparent permeability coefficient Papp (cm/s) was calculated using the equation: […]
wherein dCr/dt is the cumulative concentration of compound in the receiver chamber as a function of time (μM/s); Vr is the solution volume in the receiver chamber (0.075 mL on the apical side, 0.25 mL on the basolateral side); A is the surface area for the transport, i.e. 0.0804 cm^2 for the area of the monolayer; C0 is the initial concentration in the donor chamber (μM).
The efflux ratio was calculated using the equation:
Efflux Ratio=Papp(BA)/Papp(AB)

Mouse pharmacokinetics = format: in vivo; conditions: 30 mg/kg PO
Protocol: Compound A6 was evaluated in a mouse pharmacokinetics (PK) study. The compound was dosed at 30 mg/kg PO to 3 male CD-1 mice, formulated as a solution in 30% hydroxypropyl beta-cyclodextran, with a dosing volume of 5 ml/kg. Plasma samples were collected at 0.25, 0.50, 1.0, 2.0, 4.0, 8.0 and 24 h post-dose. In 2 separate groups with 3 mice/group, Compound A6 was dosed at 30 mg/kg, PO and plasma and brain samples were collected at 0.5 and 2.0 h post-dose. […] The brain to plasma ratio at 0.25 and 2.0 h was 0.39 and 0.41, respectively.

CYP46A1, sequence (Q9Y6A2 whole entry): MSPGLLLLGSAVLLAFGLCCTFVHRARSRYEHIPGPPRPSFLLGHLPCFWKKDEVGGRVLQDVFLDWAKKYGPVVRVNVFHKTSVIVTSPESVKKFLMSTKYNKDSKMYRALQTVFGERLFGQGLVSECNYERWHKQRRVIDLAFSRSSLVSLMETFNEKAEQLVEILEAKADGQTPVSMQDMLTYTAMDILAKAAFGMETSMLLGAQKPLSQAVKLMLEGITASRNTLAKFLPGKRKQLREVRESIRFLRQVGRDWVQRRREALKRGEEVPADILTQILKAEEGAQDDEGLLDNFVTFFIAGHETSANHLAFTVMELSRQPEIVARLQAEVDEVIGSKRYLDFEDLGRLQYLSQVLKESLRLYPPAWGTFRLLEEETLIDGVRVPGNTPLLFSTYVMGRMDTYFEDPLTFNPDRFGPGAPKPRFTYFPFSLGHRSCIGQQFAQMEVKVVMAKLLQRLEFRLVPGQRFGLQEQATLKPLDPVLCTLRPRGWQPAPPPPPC

SMILES | IC50 (CYP46A1) [nM] | also measured
N#CC1(Cc2ccccc2)CCN(C(=O)c2cccnc2-c2ccncc2)CC1 [Compound A32, 1-([2,4′-bipyridine]-3-carbonyl)-4-benzylpiperidine-4-carbonitrile] | < 100 | CLint scaled at 1 µM [1]: < 18 mL/min/kg; Papp A→B at 2.5 h, 2 µM (P-gp (MDR1)): 28 ×10⁻⁶ cm/s; efflux ratio at 2.5 h, 2 μM (P-gp (MDR1)): 1.2
CC(c1cc(F)cc(F)c1)C1(C#N)CCN(C(=O)c2cccnc2-c2ccncn2)CC1 (stereo in doubt) [Compound A257, (S)-4-(1-(3,5-difluorophenyl)ethyl)-1-(2-(pyrimidin-4-yl)nicotinoyl)piperidine-4-carbonitrile] | < 100 | 
N#CC1(Cc2ccc(F)cc2)CCN(C(=O)c2cc(Cl)ccc2-c2ccncn2)CC1 [Compound A234, 1-(5-chloro-2-(pyrimidin-4-yl)benzoyl)-4-(4-fluorobenzyl)piperidine-4-carbonitrile] | < 100 | 
N#CC1(Cc2cccc(C(F)(F)F)c2F)CCN(C(=O)c2cccnc2-c2ccncc2)CC1 [Compound A266, 1-([2,4′-bipyridine]-3-carbonyl)-4-(2-fluoro-3-(trifluoromethyl)benzyl)piperidine-4-carbonitrile] | < 100 | 
N#CC1(Cc2ccc(F)cc2)CCN(C(=O)c2cccnc2-c2ccnnc2)CC1 [Compound A200, 4-(4-fluorobenzyl)-1-(2-(pyridazin-4-yl)nicotinoyl)piperidine-4-carbonitrile] | > 1000 | 
N#CC1(Cc2cc(C(F)(F)F)ccc2F)CCN(C(=O)c2cccnc2-c2ccncn2)CC1 [Compound A273, 4-(2-fluoro-5-(trifluoromethyl)benzyl)-1-(2-(pyrimidin-4-yl)nicotinoyl)piperidine-4-carbonitrile] | < 100 | 
N#CC1(Cc2ccc(C3CC3)nc2)CCN(C(=O)c2cccnc2-c2ccncn2)CC1 [Compound A211, 4-((6-cyclopropylpyridin-3-yl)methyl)-1-(2-(pyrimidin-4-yl)nicotinoyl)piperidine-4-carbonitrile] | < 100 | 

Second part, led by results:

IC50 (CYP46A1) [nM] | SMILES | also measured
< 100 | N#CC1(Cc2ccc(F)cc2)CCN(C(=O)c2cccnc2-c2ccncn2)CC1 [Compound A6, 4-(4-fluorobenzyl)-1-(2-(pyrimidin-4-yl)nicotinoyl)piperidine-4-carbonitrile] | CLint scaled at 1 µM [1]: < 18 mL/min/kg; Papp A→B at 2.5 h, 2 µM (P-gp (MDR1)): 22 ×10⁻⁶ cm/s; efflux ratio at 2.5 h, 2 μM (P-gp (MDR1)): 1.4; Kp at 0.25 h (Mouse pharmacokinetics; CD-1, mouse, brain and plasma, mice, at 0.25 h, read-out: brain to plasma ratio): 0.39; Kp at 2 h (Mouse pharmacokinetics; CD-1, mouse, brain and plasma, mice, at 2.0 h, read-out: brain to plasma ratio): 0.41; AUC (Mouse pharmacokinetics; mouse, male CD-1 mice, plasma): 14400 ng·h/mL; Cmax (Mouse pharmacokinetics; mouse, male CD-1 mice, plasma): 10700 ng/mL; half-life (Mouse pharmacokinetics; mouse, male CD-1 mice, plasma): 57.6 min
< 100 | N#CC1(Cc2ccc(F)cc2)CCN(C(=O)c2cccnc2-c2ccncc2)CC1 [Compound A14, 1-([2,4′-bipyridine]-3-carbonyl)-4-(4-fluorobenzyl)piperidine-4-carbonitrile] | CLint scaled at 1 µM [1]: < 18 mL/min/kg; Papp A→B at 2.5 h, 2 µM (P-gp (MDR1)): 21 ×10⁻⁶ cm/s; efflux ratio at 2.5 h, 2 μM (P-gp (MDR1)): 1.2
< 100 | N#CC1(Cc2ccc(F)cc2)CCN(C(=O)c2cc(F)ccc2-c2ccncn2)CC1 [Compound A219, 1-(5-fluoro-2-(pyrimidin-4-yl)benzoyl)-4-(4-fluorobenzyl)piperidine-4-carbonitrile] | 
< 100 | Cc1ccc(CC2(C#N)CCN(C(=O)c3cccnc3-c3ccncn3)CC2)cc1 [Compound A35, 4-(4-methylbenzyl)-1-(2-(pyrimidin-4-yl)nicotinoyl)piperidine-4-carbonitrile] | 
100 to 1000 | CC(C)(O)c1ccc(CC2(C#N)CCN(C(=O)c3cccnc3-c3ccncn3)CC2)cc1 [Compound A223, 4-(4-(2-hydroxypropan-2-yl)benzyl)-1-(2-(pyrimidin-4-yl)nicotinoyl)piperidine-4-carbonitrile] | 
< 100 | N#CC1(Cc2ccc(Cl)cc2F)CCN(C(=O)c2cccnc2-c2ccncc2)CC1 [Compound A11, 1-{[2,4′-bipyridine]-3-carbonyl}-4-[(4-chloro-2-fluorophenyl)methyl]piperidine-4-carbonitrile] | 
< 100 | N#CC1(Cc2ccc(F)cc2C(F)(F)F)CCN(C(=O)c2cccnc2-c2ccncc2)CC1 [Compound A277, 1-([2,4′-bipyridine]-3-carbonyl)-4-(4-fluoro-2-(trifluoromethyl)benzyl)piperidine-4-carbonitrile] | 
100 to 1000 | N#CC1(CCc2ccccc2)CCN(C(=O)c2cccnc2-c2ccncc2)CC1 [Compound A68, 1-([2,4′-bipyridine]-3-carbonyl)-4-phenethylpiperidine-4-carbonitrile] | 
